Results on twelve molecules are retold here after patent US6100291A, “Pyrrolidine-indole compounds having 5-HT6 affinity” (Allelix Biopharmaceuticals Inc., priority 1998, dated 2000).

Like-named read-outs stand apart in the source and are kept apart here.

The target in assay [1] is T1, human 5-HT6 receptor (Homo sapiens, UniProt P50406).
T1 construct: expressed in transfected cells
Description: Binding affinity for the 5-HT6 receptor (3H-LSD radioligand binding, membranes of cells expressing the 5-HT6 receptor). Particulars: 60 minute incubation at 37° C. As to the method: All of the compounds of the invention were evaluated using cell types receptive specifically to the 5-HT6 receptor (for cloning and characterization of the human 5-HT6 receptor see Kohen, et al. J. Neurochemistry, 66, 1996: 47-56). […] After a 60 minute incubation at 37° C., the incubation was terminated by vacuum filtration. The filters were washed with buffer and the filters were counted for radioactivity using liquid scintillation spectrometry. The affinity of the test compound for the 5-HT6 receptor was determined by computer-assisted analysis of the data and determining the amount of the compound necessary to inhibit 50% of the binding of the radioligand to the receptor. Concentrations ranging from 10^-11 M to 10^-5 M of the test compound were evaluated.

For assay [2], the target named is T1, human 5-HT6 receptor. Description: Effect on the cAMP response of human 5-HT6 receptors in stably transfected HEK293 cells (EIA). The class given is cell-based.
Description: The antagonist (or agonist) property of compounds for human 5-HT6 receptors was determined by testing their effect on cAMP accumulation in stably transfected HEK293 cells.
Binding of an agonist to the human 5-HT6 receptor will lead to a increase in adenyl cyclase activity. A compound which is an agonist will show an increase in cAMP production and a compound which is an antagonist will block the agonist effect.
Cell Assay: Human 5-HT6 receptors were cloned and stably expressed in HEK293 cells. These cells were plated in 6 well plates in DMEM/F12 media with 10% fetal calf serum (FCS) and 500 μg/mL G418 and incubated at 37° C. in a CO2 incubator. The cells were allowed to grow to about 70% confluence before initiation of the experiment.
On the day of the experiment, the culture media was removed, and the cells were washed once with serum free medium (SFM). Two mL of SFM+IBMX media was added and incubated at 37° C. for 10 min. The media were removed and fresh SFM+IBMX media containing various compounds, and 1 μM serotonin (as antagonist) were added to the appropriate wells and incubated for 30 min. Following incubation, the media were removed and the cells were washed once with 1 mL of PBS (phosphate buffered saline). Each well was treated with 1 mL cold 95% ethanol and 5 mM EDTA (2:1) at 4° C. for 1 hour. The cells were then scraped and transferred into Eppendorf tubes. The tubes were centrifuged for 5 min at 4° C., and the supernatants were stored at 4° C. until assayed.
cAMP Measurement: cAMP content was determined by EIA (enzyme-immunoassay) using the Amersham Biotrak cAMP EIA kit (Amersham RPN 225). The procedure used is as described for the kit. Briefly, cAMP is determined by the competition between unlabeled cAMP and a fixed quantity of peroxidase-labelled cAMP for the binding sites on anti-cAMP antibody. The antibody is immobilized onto polystyrene microtitre wells precoated with a second antibody. […] The reaction is stopped by the addition of 100 μL 1.0 M sulphuric acid and the resultant color read by a microtitre plate spectrophotometer at 450 nM within 30 minutes. […]
In assay [3] the target is T2, human 5-HT2C receptor (Homo sapiens, UniProt P28335).
T2 sequence (P28335 33-458): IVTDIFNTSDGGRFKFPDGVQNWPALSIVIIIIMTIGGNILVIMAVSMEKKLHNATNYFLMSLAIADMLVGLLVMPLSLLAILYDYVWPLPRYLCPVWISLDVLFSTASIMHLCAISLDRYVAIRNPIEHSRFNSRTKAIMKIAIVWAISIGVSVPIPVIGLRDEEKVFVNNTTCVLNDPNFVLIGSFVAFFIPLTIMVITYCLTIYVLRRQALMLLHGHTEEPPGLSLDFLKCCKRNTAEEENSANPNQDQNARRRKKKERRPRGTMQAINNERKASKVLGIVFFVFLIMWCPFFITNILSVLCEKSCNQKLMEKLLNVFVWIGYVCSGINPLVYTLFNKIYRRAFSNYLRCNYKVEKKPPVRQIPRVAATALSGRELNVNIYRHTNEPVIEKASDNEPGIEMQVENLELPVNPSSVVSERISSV
Description: Binding selectivity for 5-HT6 relative to the human 5-HT2C receptor. Particulars: 5-HT6 vs human 5-HT2C receptor.

Assay [4] concerns the target human 5-HT7 receptor (Homo sapiens, UniProt P34969). Description: Binding selectivity for 5-HT6 relative to the human 5-HT7 receptor. Particulars: 5-HT6 vs human 5-HT7 receptor.

T1 sequence (P50406 whole entry): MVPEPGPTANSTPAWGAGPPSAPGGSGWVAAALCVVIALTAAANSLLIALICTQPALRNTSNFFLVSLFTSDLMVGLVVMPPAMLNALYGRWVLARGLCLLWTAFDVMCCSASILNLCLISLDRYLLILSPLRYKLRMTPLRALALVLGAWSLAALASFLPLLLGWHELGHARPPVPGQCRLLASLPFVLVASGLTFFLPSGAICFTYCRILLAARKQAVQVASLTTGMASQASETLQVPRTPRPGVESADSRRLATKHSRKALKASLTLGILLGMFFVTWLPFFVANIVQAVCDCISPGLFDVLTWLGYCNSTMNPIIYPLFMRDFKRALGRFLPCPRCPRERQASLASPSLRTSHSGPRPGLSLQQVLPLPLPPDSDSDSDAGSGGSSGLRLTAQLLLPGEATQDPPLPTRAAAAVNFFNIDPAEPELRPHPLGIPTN
human 5-HT7 receptor, sequence (P34969 whole entry): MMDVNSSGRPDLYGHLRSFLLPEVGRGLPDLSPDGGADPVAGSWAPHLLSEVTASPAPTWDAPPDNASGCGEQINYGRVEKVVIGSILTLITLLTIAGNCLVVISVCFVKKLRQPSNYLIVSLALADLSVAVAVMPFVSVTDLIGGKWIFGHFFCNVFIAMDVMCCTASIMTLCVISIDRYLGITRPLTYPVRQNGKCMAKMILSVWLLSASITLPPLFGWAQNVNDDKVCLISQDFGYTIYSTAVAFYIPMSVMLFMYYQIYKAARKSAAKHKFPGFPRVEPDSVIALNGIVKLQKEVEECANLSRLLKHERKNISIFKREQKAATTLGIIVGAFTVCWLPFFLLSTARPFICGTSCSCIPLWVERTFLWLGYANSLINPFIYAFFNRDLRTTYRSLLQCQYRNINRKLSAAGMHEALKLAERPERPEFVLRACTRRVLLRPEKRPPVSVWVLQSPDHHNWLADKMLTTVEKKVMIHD

As to `CN1CCC[C@@H]1Cc1cn(S(=O)(=O)c2ccccc2)c2ccc(OC3CCCCC3)cc12` [Example 4, (R)-5-Cyclohexyloxy-3-(1-methyl-2-pyrrolidinylmethyl)-1-phenylsulfonylindole], the inhibitory constant (Ki) in assay [1] (Ki) is at most 1 nM.
In assay [2], `CN1CCC[C@@H]1Cc1cn(S(=O)(=O)c2ccccc2)c2ccc(Cl)cc12` [Example 5d, (R)-5-Chloro-3-(1-methyl-2-pyrrolidinylmethyl)-1-phenylsulfonylindole] came in with an EC50 of 8.4 nM. Also, in assay [1] (Ki), the Ki is at most 1 nM.
Regarding `CN1CCC[C@@H]1Cc1cn(C(=O)c2c(Cl)cccc2Cl)c2ccc(OC3CCCCC3)cc12` [Example 5n, (R)-5-Cyclohexyloxy-1-(2,6-dichlorobenzoyl)-3-(1-methyl-2-pyrrolidinylmethyl)indole], the “greater affinity for human 5-HT6 receptor relative to human 5-HT2C” value in assay [3] was at least 36 fold. Moreover, the “greater affinity for human 5-HT6 receptor relative to human 5-HT7” value in assay [4] is at least 36 fold.
As for `CN1CCC[C@@H]1Cc1cn(C(=O)c2ccccc2)c2ccc(OC3CCCCC3)cc12` [Example 7a, (R)-5-Cyclohexyloxy-3-(1-methyl-2-pyrrolidinylmethyl)-1-benzoylindole], in assay [1] (Ki), the inhibition constant Ki was at most 10 nM.
Molecule `Cc1ccc(S(=O)(=O)n2cc(C[C@H]3CCCN3C)c3cc(F)ccc32)cc1` [Example 7c, (R)-5-Fluoro-1-(4-methylphenylsulphonyl)-3-(1-methyl-2-pyrrolidinylmethyl)-indole] had a Ki in assay [1] (Ki) of at most 1 nM.
In the case of `CN1CCC[C@@H]1Cc1cn(C(=O)c2ccc(F)cc2)c2ccc(Cl)cc12` [Example 5r, (R)-5-Chloro-1-(4-fluorobenzoyl)-3-(1-methyl-2-pyrrolidinylmethyl)indole], the “greater affinity for human 5-HT6 receptor relative to human 5-HT2C” value in assay [3] is on record as at least 36 fold. The molecule also showed an EC50 in assay [2] of 6 nM. Also, in assay [4], the “greater affinity for human 5-HT6 receptor relative to human 5-HT7” value is at least 36 fold.
The molecule `CN1CCC[C@@H]1Cc1cn(C(=O)c2ccccc2)c2ccccc12` [Example 5g, (R)-1-Benzoyl-3-(1-methyl-2-pyrrolidinylmethyl)indole] returned a Ki in assay [1] (Ki) of at most 10 nM.
The molecule `CN1CCC[C@@H]1Cc1cn(C(=O)c2ccccc2Cl)c2ccc(OC3CCCCC3)cc12` [Example 5j, (R)-1-(2-Chlorobenzoyl)-5-cyclohexyloxy-3-(1-methyl-2-pyrrolidinylmethyl)indole] displayed an EC50 in assay [2] of 64 nM.
On to `CN1CCC[C@@H]1Cc1cn(S(=O)(=O)c2ccccc2)c2ccc(OCc3ccccc3)cc12` [Example 7e, (R)-5-Benzyloxyindole-3-(1-methyl-2-pyrrolidinylmethyl)-1-phenylsulfonylindole], for which, in assay [1] (read-out: Ki), the inhibition constant Ki was at most 1 nM.
`CN1CCC[C@@H]1Cc1cn(S(=O)(=O)c2ccccc2)c2ccc(O)cc12` [Example 10, (R)-1-Phenylsulfonyl-5-hydroxy-3-(1-methyl-2-pyrrolidinylmethyl)indole]: the Ki in assay [1] (Ki) is at most 10 nM.
With `CN1CCC[C@@H]1Cc1cn(C(=O)c2ccccc2)c2ccc(Br)cc12` [Example 7d, (R)-1-Benzoyl-5-bromo-3-(1-methyl-2-pyrrolidinylmethyl) indole], the Ki in assay [1] (Ki) was at most 1 nM.
In the case of `CN1CCC[C@@H]1Cc1cn(C(=O)c2ccccc2)c2ccc(Cl)cc12` [Example 5p, (R)-1-Benzoyl-5-chloro-3-(1-methyl-2-pyrrolidinylmethyl)indole], the inhibition constant (Ki) in assay [1] (Ki) is at most 1 nM.

By Ki is commonly meant the equilibrium dissociation constant of an inhibitor or competing ligand from its target. One may read the EC50 as the concentration at which the effect is half-maximal.
